As usually defined, the amount remaining is the share of the starting amount still present when the sample was taken.

≈ marks a conversion by molar mass, not a printed value. Read-outs that look alike come from different tables or passages of the source.

Here are results for six compounds from patent US5756765A, “2- (2-Substituted pyrrolidin-4-yl) thio-carbapenem derivatives” (Chong Kun Dang Corp., priority 1992, dated 1998).

Data set [1] in a line: Test 2: Stability test against kidney dehydrogenase DHP-I. Type of data set: in vitro ADME, pig. Particulars: kidney dhp-i enzyme; for remaining at 5 min / remaining at 10 min / remaining at 20 min / remaining at 40 min / remaining at 80 min / remaining at 2 h: pig kidney enzyme, 10 mM phosphate buffer, 37° C., read-out: percentage of the remaining amount (stability on DHP-I enzyme); for remaining at 2 h: 120 minutes. On the procedure: Test 2: Stability Test Against kidney Dehydrogenase DHP-I
Each of the novel compounds of Examples 1,2,3 and 4 of the present invention and the comparative compound imipenem was dissolved in 10 mM phosphate buffer and the resulting solution was mixed with dehydrogenase enzyme solution extracted from pig kidney in a ratio of equivalent amounts. The resulting mixture was incubated at 37° C. for 2 hours, during which the decomposition degree of the compound was measured. The result thereof was given in the following Table 2 in terms of percentage of the remaining amount on the basis of the initially added amount of the compound.

The subject of another data set is Escherichia coli DC 2. As to the kind of experiment: Test 1: In vitro antibacterial activity (MIC), Mueller Hinton Agar dilution. Type of data set: cell-based. Particulars: read-out: Minimal Inhibitory Concentration (MIC). Here is the method:
(§1) Test 1: In Vitro Antibacterial Activity Test
(§2) The compounds of Examples 1,2,3 and 4 according to the present invention were used as a test compound and imipenem was used as a comparative compound.
(§3) The test compounds and comparative compound were gradually diluted in Mueller Hinton Agar(MHA) medium. Test strains as listed in the following table were inoculated into the medium in an amount of 10^6 viable cells/ml and then incubated at 37° C. for 18 hours. Then, MIC value was measured and expressed in terms of μg/ml.

The next data set has as its system Salmonella typhimurium. Described as above. It is filed as cell-based. As to conditions: Salmonella enterica, read-out: Minimal Inhibitory Concentration (MIC). Here is the method: as §1, §2, §3
Data set [2] deals with Klebsiella aerogenes 1522E. Described as above. Type of data set: cell-based. As to conditions: read-out: Minimal Inhibitory Concentration (MIC). Here is the method:
as §1, §2, §3

Data set [3] relates to Enterobacter cloacae 1321E. The data set is described as above. Type of data set: cell-based. As to conditions: read-out: Minimal Inhibitory Concentration (MIC). On the procedure:
as §1, §2, §3

The test system of a further data set is Escherichia coil TEM. Described as above. It is filed as cell-based. As to conditions: 18 h, read-out: Minimal Inhibitory Concentration (MIC). On the procedure: as §1, §2, §3
The subject of data set [4] is Pseudomonas aeruginosa 9027. Described as above. As to conditions: read-out: Minimal Inhibitory Concentration (MIC). It is filed as cell-based. Here is the method:
as §1, §2, §3

In data set [5] the test system is Pseudomonas aeruginosa 1592E. Described as above. It is filed as cell-based. As to conditions: read-out: Minimal Inhibitory Concentration (MIC). Here is the method:
as §1, §2, §3

Another data set has as its system Klebsiella oxytoca 1082E. Described as above. Type of data set: cell-based. Particulars: read-out: Minimal Inhibitory Concentration (MIC). Here is the method:
as §1, §2, §3

For data set [6], the system named is Staphylococcus aureus SG 511. The description is as above. It is filed as cell-based. Particulars: read-out: Minimal Inhibitory Concentration (MIC). Here is the method: as §1, §2, §3
The subject of data set [7] is DHP-I enzyme present in human kidney. As to conditions: cited from earlier work.
The subject of the next data set is Pseudomonas aeruginosa. Particulars: compared with thienamycin; cited from earlier work.
The conditions of data set [8]: substances produced by DHP-I enzyme decomposition; cited from earlier work.
Data set [9] relates to various bacteria including beta-lactamase producing strains. Particulars: compared with thienamycin; cited from earlier work.
In data set [10] the test system is dehydrogenase-1(DHP-I enzyme) present in kidney. Particulars: cited from earlier work.
The conditions of data set [11]: clinically administered; cited from earlier work.
The test system of data set [12] is gram-positive and gram-negative bacteria. Particulars: cited from earlier work.
[13] abbreviates: DC2, Escherichia coli DC 2, 10^6 viable cells/ml, 37° C., 18 hours.
The mark [14] stands for this setting: Salmonella typhimurium, 10^6 viable cells/ml, 37° C., 18 hours.
[15] abbreviates: Klebsiella aerogenes 1522E, 10^6 viable cells/ml, 37° C., 18 hours.
Setting [16] is: Enterobacter cloacae 1321E, 10^6 viable cells/ml, 37° C., 18 hours.
Where [17] appears, read: Pseudomonas aeruginosa 9027, 10^6 viable cells/ml, 37° C., 18 hours.
[18] abbreviates: Pseudomonas aeruginosa 1592E, 10^6 viable cells/ml, 37° C., 18 hours.
Where [19] appears, read: Klebsiella oxytoca 1082E, 10^6 viable cells/ml, 37° C., 18 hours.
Where [20] appears, read: SG511, Staphylococcus aureus SG 511, 10^6 viable cells/ml, 37° C., 18 hours.

For the compound `C[C@@H](O)[C@H]1C(=O)N2C(C(=O)O)=C(S[C@@H]3CN[C@H](CSCC(=O)NCC#N)C3)[C@H](C)[C@H]12` [Example 1, (1R,5S,6S)-2-[(2S,4S)-2-{(cyanomethylcarbamoyl)methylmercaptomethyl}pyrrolidin-4-yl]thio-6-[(R)-1-hydroxyethyl]-1-methyl-1-carbapen-2-em-3-carboxylicacid], the fraction remaining at 5 min in data set [1] turned out to be 99.7%. The fraction remaining at 10 min in data set [1] is 99.4%. In [1], the amount remaining at 20 min was determined as 99.1%. The amount remaining at 40 min in [1] is 98.1%. In addition, the share remaining at 80 min in data set [1] was 97.5%. For the same compound, in [1], the fraction remaining at 2 h came to 97.2%. Besides, the MIC with Escherichia coli DC 2 (setting [13]) amounted to 0.1 µg/mL (≈ 0.22 µM); in the data set with Salmonella typhimurium (setting [14]), 0.2 µg/mL (≈ 0.44 µM); in [2] (setting [15]), 0.2 µg/mL (≈ 0.44 µM); in data set [3] (setting [16]), 0.05 µg/mL (≈ 0.11 µM); in the data set on Escherichia coil TEM, 0.1 µg/mL (≈ 0.22 µM); in [4] (setting [17]), 0.1 µg/mL (≈ 0.22 µM). Besides, the figures for the MIC (in data set [5] (setting [18]); in the data set with Klebsiella oxytoca 1082E (setting [19]); in data set [6] (setting [20])) were 0.78 µg/mL (≈ 1.72 µM), 0.2 µg/mL (≈ 0.44 µM) and 0.05 µg/mL (≈ 0.11 µM), respectively.

As to `C[C@@H](O)[C@H]1C(=O)N2C(C(=O)O)=C(S[C@@H]3CN[C@H](CSCCC(=O)NCC#N)C3)[C@H](C)[C@H]12` [Example 2, (1R,5S,6S)-2-[(2S,4S)-2-{(cyanomethylcarbamoyl)ethylmercaptomethyl}pyrrolidin-4-yl]thio-6-[(R)-1-hydroxyethyl]1-methyl-1-carbapen-2-em-3-carboxylic acid], the share remaining at 5 min in data set [1] turned out to be 100%. In data set [1], the fraction remaining at 10 min was determined as 99.4%. Further, in data set [1], the share remaining at 20 min was found to be 98.6%. In data set [1], the share remaining at 40 min was 97.2%. Also, the fraction remaining at 80 min in data set [1] is 96.3%. Further, the share remaining at 2 h in data set [1] worked out at 96.3%. The MIC in the data set on Escherichia coli DC 2 (setting [13]) was 0.1 µg/mL (≈ 0.213 µM); in the data set with Salmonella typhimurium (setting [14]), 0.1 µg/mL (≈ 0.213 µM); in data set [2] (setting [15]) it was 0.1 µg/mL (≈ 0.213 µM); in [3] (setting [16]), 0.05 µg/mL (≈ 0.107 µM); with Escherichia coil TEM it was 0.05 µg/mL (≈ 0.107 µM); in data set [4] (setting [17]), 0.78 µg/mL (≈ 1.66 µM). Also, the figures for the MIC (in data set [5] (setting [18]); in the data set on Klebsiella oxytoca 1082E (setting [19]); in data set [6] (setting [20])) were 0.78 µg/mL (≈ 1.66 µM), 0.2 µg/mL (≈ 0.427 µM) and 0.05 µg/mL (≈ 0.107 µM), respectively.

`C[C@@H](O)[C@H]1C(=O)N2C(C(=O)O)=C(S[C@@H]3CN[C@H](CSCCC(=O)NCCO)C3)[C@H](C)[C@H]12` [Example 3, (1R,5S,6S)-2-[(2S,4S)-2-{(hydroxyethylcarbamoyl)ethylmercaptomethyl}pyrrolidin-4-yl]thio-6-[(R)-1-hydroxyethyl]-1-methyl-1-carbapen-2-em-3-carboxylicacid]: the share remaining at 5 min in data set [1] is 99.7%. Besides, the share remaining at 10 min in data set [1] was found to be 99.2%. The amount remaining at 20 min in data set [1] was found to be 98.9%. Further, the amount remaining at 40 min in data set [1] stood at 98%. The share remaining at 80 min in data set [1] was determined as 97.2%. Also, the fraction remaining at 2 h in data set [1] is 97%. For the same compound, the MIC was determined as 0.1 µg/mL (≈ 0.211 µM) in the data set on Escherichia coli DC 2 (setting [13]); 0.1 µg/mL (≈ 0.211 µM) in the data set with Salmonella typhimurium (setting [14]); 0.1 µg/mL (≈ 0.211 µM) in data set [2] (setting [15]); 0.05 µg/mL (≈ 0.106 µM) in data set [3] (setting [16]); 0.05 µg/mL (≈ 0.106 µM) in the data set on Escherichia coil TEM; 0.39 µg/mL (≈ 0.823 µM) in data set [4] (setting [17]). Also, the results for the MIC (in data set [5] (setting [18]); with Klebsiella oxytoca 1082E (setting [19]); in data set [6] (setting [20])) were 0.39 µg/mL (≈ 0.823 µM), 0.2 µg/mL (≈ 0.422 µM) and 0.05 µg/mL (≈ 0.106 µM), respectively.

Take `C[C@@H](O)[C@H]1C(=O)N2C(C(=O)O)=C(S[C@@H]3CN[C@H](CSCCC(=O)NCC(N)=O)C3)[C@H](C)[C@H]12` [Example 4, (1R,5S,6S)-2-[(2S,4S)-2-{(2-carbamoylmethylcarbamoyl)ethylmercaptomethyl}pyrrolidin-4-yl]thio-6-[(R)-1-hydroxyethyl]-1-methyl-1-carbapen-2-em-3-carboxylic acid]: the share remaining at 5 min in [1] came to 100%. In data set [1], the fraction remaining at 10 min amounted to 99.8%. The amount remaining at 20 min in data set [1] amounted to 99%. Besides, the amount remaining at 40 min in [1] worked out at 99.8%. Further, the fraction remaining at 80 min in data set [1] came out at 98.8%. The fraction remaining at 2 h in data set [1] amounted to 98.8%. Besides, the MIC with Escherichia coli DC 2 (setting [13]) is 0.1 µg/mL (≈ 0.206 µM); with Salmonella typhimurium (setting [14]), 0.2 µg/mL (≈ 0.411 µM); in [2] (setting [15]) it was 0.1 µg/mL (≈ 0.206 µM); in data set [3] (setting [16]), 0.05 µg/mL (≈ 0.103 µM); in the data set on Escherichia coil TEM, 0.1 µg/mL (≈ 0.206 µM); in data set [4] (setting [17]), 0.1 µg/mL (≈ 0.206 µM). The MIC turned out to be 0.78 µg/mL (≈ 1.6 µM) in [5] (setting [18]), 0.2 µg/mL (≈ 0.411 µM) in the data set on Klebsiella oxytoca 1082E (setting [19]) and 0.05 µg/mL (≈ 0.103 µM) in [6] (setting [20]).

As to `C[C@@H](O)[C@H]1C(=O)N2C(C(=O)O)=C(SCCN=CN)C[C@H]12` [Imipenem, (5R, 6S, 8R)-3-[[2-(formimidoylamino)ethyl]thio]-6-(1-hydroxyethyl)-7-oxo-1-azabicyclo[3.2.0]hept-ene-2-carboxylic acid hydrate, reference compound], the amount remaining at 5 min in data set [1] was 99.2%. In addition, the share remaining at 10 min in data set [1] stood at 97.9%. In addition, in data set [1], the share remaining at 20 min was found to be 94.3%. Besides, the fraction remaining at 40 min in [1] amounted to 87.7%. For the same compound, in data set [1], the fraction remaining at 80 min stood at 77%. In [1], the share remaining at 2 h is 66.6%. The metabolised at 2 h in data set [1] (pig, within about 2 hours from beginning of mixing incubation, read-out: decomposition ("was composed by about 40%")) was about 40%. Further, in data set [7], the “decomposition by DHP-I, in words” value is recorded as “can be readily decomposed by DHP-I enzyme present in human kidney”. Further, the “antibacterial activity, times stronger than that of thienamycin” value in the data set on Pseudomonas aeruginosa is 2 to 4 times. Further, the MIC was 0.78 µg/mL in the data set with Escherichia coli DC 2 (Escherichia coli, DC2, 18 h); 0.78 µg/mL with Salmonella typhimurium (TYPHIMURIUM, 18 h); 0.78 µg/mL in [2] (Klebsiella aerogenes, 1522E, 18 h); 0.2 µg/mL in [3] (Enterobacter cloacae, 1321E, 18 h); 0.2 µg/mL in the data set with Escherichia coil TEM; 0.78 µg/mL in data set [4] (Pseudomonas aeruginosa, 9027, 18 h). Further, the MIC worked out at 0.78 µg/mL in [5] (Pseudomonas aeruginosa, 1592E, 18 h); 0.39 µg/mL in the data set with Klebsiella oxytoca 1082E (Klebsiella oxytoca, 1082E, 18 h); 0.1 µg/mL in data set [6] (Staphylococcus aureus, SG511, 18 h). Besides, the “renal toxicity, in words” value in data set [8] is on record as “serious renal toxicity”. The “antibacterial activity relative to thienamycin, in words” value in data set [9] is on record as “equivalent to, or higher than, that of thienamycin”.

In the case of `C[C@@H](O)[C@H]1C(=O)N2C(C(=O)O)=C(SCCN)CC12` (stereo partly drawn) [thienamycin, [5R-[5α, 6α(R*)]]-3-[(2-aminoethyl)-thio]-6-(1-hydroxyethyl)-7-oxo-1-azabicyclo[3.2.0]-hept-2-ene-2-carboxylic acid], the “decomposition in vivo by DHP-I, in words” value in data set [10] was “can be readily decomposed in vivo by dehydrogenase-1(DHP-I enzyme) present in kidney”. In [11], the “recovery rate in urine” value is on record as “extremely low”. For the same compound, in data set [12], the “antimicrobial activity, in words” value was “broad and potent antimicrobial activity against gram-positive and gram-negative bacteria”.
